In ChEMBL document CHEMBL4673363, “Highly potent, broadly active antifungal agents for the treatment of invasive fungal infections” (Bioorg Med Chem Lett, 2021):
≈ marks a conversion by molar mass, not a printed value.

How the values were obtained:
[1] = Antifungal activity against Mucor ramosissimus ATCC 90286; assay type: functional
Mucor circinelloides = experiment: Antifungal activity against Mucor circinelloides ATCC 26579; assay type: functional
Fusarium solani = experiment: Antifungal activity against Fusarium solani ATCC 58877; assay type: functional
Aspergillus fumigatus = experiment: Antifungal activity against Aspergillus fumigatus ATCC 3626; assay type: functional
Aspergillus flavus = experiment: Antifungal activity against Aspergillus flavus ATCC 3631; assay type: functional
[2] = Antifungal activity against Fusarium falciforme ATCC 3636; assay type: functional
Candida [3] = experiment: Antifungal activity against Candida assessed as inhibition of fungal growth by broth dilution assay; assay type: functional, organism-based
Aspergillus = experiment: Antifungal activity against Aspergillus assessed as inhibition of fungal growth by broth dilution assay; assay type: functional, organism-based; conditions: time 48 hrs
Trichophyton = experiment: Antifungal activity against Trichophyton after 48 hrs by CLSI-based broth microdilution method; assay type: functional
Candida [4] = experiment: Antifungal activity against Candida after 48 hrs by CLSI-based broth microdilution method; assay type: functional

SMILES | MIC [1] | MIC (Mucor circinelloides) | MIC (Fusarium solani) | MIC (Aspergillus fumigatus) | MIC (Aspergillus flavus) | MIC [2] | MIC (Candida [3]) | MIC (Aspergillus) | MIC (Trichophyton) | MIC (Candida [4])
CCn1c(-c2ccc(C3=CCN(C(=N)N)CC3)cc2)nnc1-c1ccc(C2=CCN(C(=N)N)CC2)cc1 | 0.78 µg/mL (≈ 1.57 µM) | 0.2 µg/mL (≈ 0.404 µM) | < 0.012 µg/mL | < 0.012 µg/mL | < 0.012 µg/mL | < 0.012 µg/mL | – | – | – | –
Cc1cc(C2=CCN(C(=N)N)CC2)ccc1-c1nnc(-c2ccc(C3=CCN(C(=N)N)CC3)cc2C)n1C | 6.25 µg/mL (≈ 12.3 µM) | 1.56 µg/mL (≈ 3.06 µM) | 0.2 µg/mL (≈ 0.392 µM) | 0.78 µg/mL (≈ 1.53 µM) | 0.39 µg/mL (≈ 0.765 µM) | 0.78 µg/mL (≈ 1.53 µM) | – | – | – | –
Cn1c(-c2ccc(C3=CCN(C(=N)N)C3)cc2)nnc1-c1ccc(C2=CCN(C(=N)N)C2)cc1 | 6.25 µg/mL (≈ 13.8 µM) | 0.78 µg/mL (≈ 1.72 µM) | 0.2 µg/mL (≈ 0.441 µM) | 0.2 µg/mL (≈ 0.441 µM) | 0.39 µg/mL (≈ 0.86 µM) | 0.05 µg/mL (≈ 0.11 µM) | – | – | – | –
Cc1cc(C2=CCN(C(=N)N)CC2)ccc1-c1nnc(-c2ccc(C3=CCN(C(=N)N)CC3)cc2)o1 | 25 µg/mL (≈ 51.8 µM) | 12.5 µg/mL (≈ 25.9 µM) | 0.78 µg/mL (≈ 1.62 µM) | 0.78 µg/mL (≈ 1.62 µM) | 0.31 µg/mL (≈ 0.642 µM) | 0.2 µg/mL (≈ 0.414 µM) | – | – | – | –
Cn1c(-c2ccc(N3CCN(C(=N)N)CC3)cc2)nnc1-c1ccc(N2CCN(C(=N)N)CC2)cc1 | > 100 µg/mL | > 100 µg/mL | 1.56 µg/mL (≈ 3.2 µM) | 0.39 µg/mL (≈ 0.8 µM) | 0.78 µg/mL (≈ 1.6 µM) | 0.39 µg/mL (≈ 0.8 µM) | – | – | – | –
Cn1c(-c2ccc(C3=CCN(C(=N)N)CC3)cc2)nnc1-c1ccc(C2=CCN(C(=N)N)CC2)cc1 | 0.39 µg/mL (≈ 0.81 µM) | 0.2 µg/mL (≈ 0.415 µM) | 0.024 µg/mL (≈ 0.0498 µM) | 0.1 µg/mL (≈ 0.208 µM) | 0.1 µg/mL (≈ 0.208 µM) | 0.024 µg/mL (≈ 0.0498 µM) | – | – | – | –
COCCn1c(-c2ccc(C3=CCN(C(=N)N)CC3)cc2)nnc1-c1ccc(C2=CCN(C(=N)N)CC2)cc1 | 1.56 µg/mL (≈ 2.97 µM) | 0.39 µg/mL (≈ 0.742 µM) | 0.05 µg/mL (≈ 0.0951 µM) | 0.1 µg/mL (≈ 0.19 µM) | 0.2 µg/mL (≈ 0.38 µM) | 0.05 µg/mL (≈ 0.0951 µM) | – | – | – | –
Cc1cc(-c2nnc(-c3ccc(C4=CCN(C(=N)N)CC4)c(C)c3)n2C)ccc1C1=CCN(C(=N)N)CC1 | 50 µg/mL (≈ 98.1 µM) | 6.25 µg/mL (≈ 12.3 µM) | 0.78 µg/mL (≈ 1.53 µM) | 0.78 µg/mL (≈ 1.53 µM) | 1.56 µg/mL (≈ 3.06 µM) | 0.78 µg/mL (≈ 1.53 µM) | – | – | – | –
Cc1ccc(Oc2ccccc2-c2csc(N=C3NCCCN3)n2)c(C)c1 [ABAFUNGIN] | – | – | – | – | – | – | 0.5 µg/mL (≈ 1.32 µM) | 0.5 µg/mL (≈ 1.32 µM) | – | –
C[C@@H]1[C@H](O)[C@@H](C)/C=C/C=C/C=C/C=C/C=C/C=C/C=C/[C@H](O[C@@H]2O[C@H](C)[C@@H](O)[C@H](N)[C@@H]2O)C[C@@H]2O[C@](O)(C[C@@H](O)C[C@@H](O)[C@H](O)CC[C@@H](O)C[C@@H](O)CC(=O)O[C@H]1C)C[C@H](O)[C@H]2C(=O)O [AMPHOTERICIN B] | 3.13 µg/mL (≈ 3.39 µM) | 1.56 µg/mL (≈ 1.69 µM) | 3.13 µg/mL (≈ 3.39 µM) | 3.13 µg/mL (≈ 3.39 µM) | 3.13 µg/mL (≈ 3.39 µM) | 3.13 µg/mL (≈ 3.39 µM) | – | – | – | –
CC(C)(C)c1cc(C(C)(C)C)c2[nH]c(C(C)(C)C)c(C[C@H](NC(=O)[C@@H](N)CCCNC(=N)N)C(=O)N[C@@H](CCCNC(=N)N)C(=O)NCCc3ccccc3)c2c1 [LTX-109] | – | – | – | – | – | – | – | – | 8 µg/mL (≈ 10.2 µM) | 4 µg/mL (≈ 5.08 µM)
CC[C@@H]([C@H](C)O)n1ncn(-c2ccc(N3CCN(c4ccc(OC[C@@H]5CO[C@@](Cn6cncn6)(c6ccc(F)cc6F)C5)cc4)CC3)cc2)c1=O [POSACONAZOLE] | 0.78 µg/mL (≈ 1.11 µM) | 1.56 µg/mL (≈ 2.23 µM) | 1.56 µg/mL (≈ 2.23 µM) | 0.39 µg/mL (≈ 0.557 µM) | 0.78 µg/mL (≈ 1.11 µM) | 0.78 µg/mL (≈ 1.11 µM) | – | – | – | –
